Assay results from patent US12653887B2, “T cell manufacturing compositions and methods” (priority 2019, dated 2026).

Tests used:
HLA-A02:01 = target: T1, HLA-A02:01 (Homo sapiens, UniProt P04439, D140Y/D185E/D98H/E176V/E277Q/G131W/G231S/I119V/I121R/I166T/I218V/L300P/L318F/N151K/N90K/P208A/P217A/Q86G/Q94H/R138H/R169H/T345S); test: Epitope presentation after RNA electroporation of CD25 depleted PBMC, HLA immunoprecipitation and LC-MS/MS; type: cell-based; conditions: over 24 hours
T1 construct: endogenous in cells; host or cells: CD25 depleted PBMCs (donor cells)
Experimental: CD25 depleted PBMC cells were electroporated with RNA (depicted in FIG. 60C) and cultured over a period of 24 hours. Cells were harvested at the indicated times, pelleted and flash frozen. HLA-A02:01-peptide complexes were immunoprecipitated and then peptides were eluted and analyzed by LC-MS/MS. Peptide eluted from electroporated cells (Light) were compared to heavy labelled standard peptides (Heavy) for positive identification. (FIG. 63A).

CD8+ T cells = test: RNA nucleofection of differently prepared PBMCs, multimer assay; type: cell-based, human; conditions: for Hit Rate (%) / Mean Frequency: immunogen RNA (25 mer epitopes)
Experimental: In this experiment, PBMCs were variously treated for depletion of certain populations and their expansion and multimer specificity was investigated. Yield of multimer specific T cells was tested by nucleofecting three sets of PBMC preparations with RNA constructs: (i) CD25 depleted PBMCs, (ii) CD14 and CD25 depleted PBMCs, (iii) Frozen CD14 and CD25 depleted PBMCs. In preparation (i), T cells were not separated from the APCs during nucleofection like in preparation (ii) and (iii). These were compared with a set of PBMCs loaded with peptides. All cells were treated with FLT3L prior to electroporation. […] It could be possible that less handling of PBMCs before RNA loading step was advantageous. Depletion of multiple cell components in the PBMC population required subjecting the cell population to multiple antibodies, washing steps and recovery steps, which amounts to handling stress for the cells.
CD25 depleted PBMCs had detectable Gli3 specific CD8+ T cells, and ME1 specific CD8+ T cells. ME1 specific CD8+ T cells were negligible in all the other sets.

CD8+ naïve T cells = test: CD8+ naïve T cell induction (protocol 1 / protocol 2), pMHC multimer flow cytometry; type: cell-based, human; conditions: for fraction of antigen specific CD8+ T cells (multimer): HD35
Experimental: • DC media (Cellgenix) • CD14 microbeads, human, Miltenyi #130-050-201 • Cytokines and/or growth factors • T cell media (AIM V+RPMI 1640 glutamax+serum+PenStrep) • Peptide stocks—1 mM per peptide (HIV A02—5-10 peptides, HIV B07—5-10 peptides, DOM—4-8 peptides, PIN—6-12 peptides) Procedure: Step 1: Monocyte Isolation for DC Prep • 1. Calculate the approximate number of PBMCs to thaw based on expected DC yield for each donor. • 2. Thaw PBMCs and resuspend at ˜1×10^6-1×10^8 cells/mL in DC media. • 3. Add benzonase (1:1000 dilution) and place in incubator with cap loosened. • 4. Perform CD14^+ monocyte enrichment according to manufacturer protocol. • 5. Plate enriched cells in 6-well plates at 1×10^5-1×10^7 per well in DC media with one or more cytokines and/or growth factors selected from GM-CSF, IL-4, FLT3L, TNF-α, IL-1β, PGE1, IL-6, IL-7, IFN-α, R848, LPS, ss-rna40, and polyI:C. Step 2: Peptide Loading and Maturation • 1. Count DCs and split the cells according to the experimental conditions in 15 mL tubes; 0.01-1 million cells per condition. • 2. Spin @1200 rpm for 5 min and resuspend in 50-400 μL DC medium. Add peptide(s) and place in incubator with loosened cap for 0.5-3 hrs. Volumes were calculated for peptide pools at a concentration of 1 mM per peptide. A volume of each separate pool of A02 (5 peptides) and B07 (5 peptides) was added per well for a final concentration of 0.001-100 μM per peptide. • 3. After 0.5-3 hrs. add 200 μL to 1.5 mL of DC media containing maturation mix and transfer the cells to 24 well plate. The maturation mix contains one or more cytokines selected from GM-CSF, IL-4, FLT3L, TNF-α, IL-1β, PGE1, IL-6, IL-7, IFN-α, R848, LPS, ss-rna40, and polyI:C. Step 3: Setting Up Long Term Stimulation (LTS) Experiment • 1. Carefully remove all media from the wells of the DC plates, transferring each well to a separate well in a 24-well deepwell block. • 2. Wash each well with 0.5-3 mL T cell media and combine with DC media in the deepwell block. • 3. Add 100 μL to 2 mL T cell media to each well. • 4. Spin down DCs at 1200 rpm for 5 min. • 5. Remove all supernatant, resuspend DCs in 100 μL to 2 mL T cell media and transfer back into the correct wells. • 6. Thaw PBMCs in T cell media and resuspend at 0.5×10^6-4×10^6 cells/mL in T cell media with IL-7 and IL-15. • 7. Add 0.5-3 mL of prepared PBMCs to each well. Step 4: Feeding LTS
• AIM V media (Invitrogen) • Media 1 (RPMI 1640 glutamax+serum+PenStrep) • Media 2 (AIM V+RPMI 1640 glutamax+serum+PenStrep) Procedure: • Step 1: Plate 4 million PBMCs in each well of 24 well plate with one or more cytokines in Media 2. The one or more cytokines are selected from GM-CSF, IL-4, FLT3L, TNF-α, IL-1β, PGE1, IL-6, IL-7, IFN-α, R848, LPS, ss-rna40, and polyI:C. • Step 2: Peptide loading and maturation in Media 2 • 1. Make stock peptide pool of interest (except for no peptide condition) at 0.001-100 μM for shortmers and 0.001-100 μM for longmers final concentration in respective wells and mix. • 2. Incubate for 0.5-3 hr. • 3. Make stock maturation cocktail and add to each well after incubation and mix. […]

[1] = Donor 1, starting material CD14-CD25- (Base Arm)
[2] = Donor 1, starting material CD14-CD25- (Frozen)
[3] = Donor 1, starting material PBMC (CD25−), IL-7 and IL-15
[4] = Donor 2, starting material CD14-CD25- (Base Arm)
[5] = Donor 2, starting material CD14-CD25- (Frozen)
[6] = Donor 2, starting material PBMC (CD25−), IL-7 and IL-15
[7] = Donor 2, starting material PBMC (CD25−)

Q: “CDK4: CDK4 epitope encoded in the RNA (25 mer epitopes) construct (ACDPHSGHFV)” was tested. Which “presentation of the epitope by HLA-A02:01 after RNA electroporation” value (“presentation of the epitope” below) (HLA-A02:01) did it give?
A: expressed readily as dominant epitopes

Q: What about the “Hit Rate (%)” value (CD8+ T cells; [1]) of the same substance?
A: 0%

Q: And the “Hit Rate (%)” value (CD8+ T cells; [2])?
A: 0%

Q: What about the “Hit Rate (%)” value (CD8+ T cells; [3]) of the same substance?
A: 0%

Q: And the “Hit Rate (%)” value (CD8+ T cells; [4])?
A: 0%

Q: And the “Hit Rate (%)” value (CD8+ T cells; [5])?
A: 0%

Q: And the “Hit Rate (%)” value (CD8+ T cells; [6])?
A: 0%

Q: How did the “presentation of the epitope” value (HLA-A02:01) turn out when “ACTN4: previously identified neoantigen (PIN) short peptide; also encoded in RNA (FIASNGVKLV)” was run?
A: expressed readily as dominant epitopes

Q: And the “Hit Rate (%)” value (CD8+ T cells; [1])?
A: 0%

Q: What about the “Hit Rate (%)” value (CD8+ T cells; [2]) of the same substance?
A: 0%

Q: And the “Hit Rate (%)” value (CD8+ T cells; [3])?
A: 0%

Q: And the “Hit Rate (%)” value (CD8+ T cells; [4])?
A: 0%

Q: What about the “Hit Rate (%)” value (CD8+ T cells; [5]) of the same substance?
A: 0%

Q: What about the “Hit Rate (%)” value (CD8+ T cells; [6]) of the same substance?
A: 0%

Q: What about the “fraction of antigen specific CD8+ T cells (multimer)” value (shortened to “fraction”) (CD8+ naïve T cells; Prot. 2 (CD25 depleted), day 26, confirmation) of the same substance?
A: 0.095%

Q: What about the “fraction” value (CD8+ naïve T cells; Prot. 2 (CD25 depleted), day 26, initial) of the same substance?
A: 0.376%

Q: What does the source list for “Gli3: Gli3 epitope encoded in the RNA (25 mer epitopes) construct (RLIPGIPTV)”?
A: presentation of the epitope by HLA-A02:01 after RNA electroporation (HLA-A02:01): expressed readily as dominant epitopes; Hit Rate (%) (CD8+ T cells; [1]): 100%; Mean Frequency (CD8+ T cells; [1]): 0.98%; Hit Rate (%) (CD8+ T cells; [2]): 100%; Mean Frequency (CD8+ T cells; [2]): 0.52%; Mean Frequency (CD8+ T cells; Donor 1, starting material PBMC (CD25−)): 6.09%; Hit Rate (%) (CD8+ T cells; [3]): 83%; Hit Rate (%) (CD8+ T cells; [4]): 100%; Mean Frequency (CD8+ T cells; [4]): 0.79%; Hit Rate (%) (CD8+ T cells; [5]): 67%; Mean Frequency (CD8+ T cells; [5]): 0.12%; Mean Frequency (CD8+ T cells; [7]): 2.68%; Hit Rate (%) (CD8+ T cells; [6]): 83%; increase in multimer positive cells, RNA transfected versus peptide loaded PBMCs (CD8+ T cells; FIG. 61B): greater than 10 fold

Q: How did the “presentation of the epitope” value (HLA-A02:01) turn out when “ME-1: previously identified neoantigen (PIN) short peptide; also encoded in RNA (FLDEFMEGV)” was run?
A: expressed readily as dominant epitopes

Q: What about the “Hit Rate (%)” value (CD8+ T cells; [1]) of the same substance?
A: 0%

Q: What about the “Hit Rate (%)” value (CD8+ T cells; [2]) of the same substance?
A: 0%

Q: And the “Hit Rate (%)” value (CD8+ T cells; [3])?
A: 0%

Q: What about the “Hit Rate (%)” value (CD8+ T cells; [4]) of the same substance?
A: 83%

Q: What about the “Mean Frequency” value (CD8+ T cells; [4]) of the same substance?
A: 0.01%

Q: What about the “Hit Rate (%)” value (CD8+ T cells; [5]) of the same substance?
A: 0%

Q: What about the “Mean Frequency” value (CD8+ T cells; [5]) of the same substance?
A: 0.01%

Q: What about the “Mean Frequency” value (CD8+ T cells; [7]) of the same substance?
A: 2.97%

Q: What about the “Hit Rate (%)” value (CD8+ T cells; [6]) of the same substance?
A: 67%

Q: What about the “fraction” value (CD8+ naïve T cells; Prot. 2 (bulk), day 19, confirmation) of the same substance?
A: 0.927%

Q: And the “fraction” value (CD8+ naïve T cells; Prot. 2 (bulk), day 19, initial)?
A: 4.15%

Q: What about the “fraction” value (CD8+ naïve T cells; Prot. 2 (bulk), day 26, confirmation) of the same substance?
A: 2.34%

Q: And the “fraction” value (CD8+ naïve T cells; Prot. 2 (bulk), day 26, initial)?
A: 12.6%

Q: And the “CD8+ T cells specific to the peptide” value (CD8+ naïve T cells; protocol 2, after a long induction)?
A: 12.6%
